Assay results: patent US20240418701A1, “SINGLE MOLECULE IDEN[…] A REACTIVE HETERO-NANOPORE” (priority 2021, published 2024)

Experiments:
[1] = biological target: T1, MspA-PBA (boronic acid appended hetero-octameric MspA) (Mycolicibacterium smegmatis, UniProt A0QR29, D117C/D118N/D120N/D145R/D161R/E166K); experiment: Single channel recording of alditol binding to MspA-PBA nanopore (standards and zero-sugar drinks); design: species or system Mycobacterium smegmatis; settings: N=3; for ratio (mean current percentage blockage) / std (standard deviation of the blocking level): alditol 4 mM (glycerol 8 mM) in cis
T1 construct: H6 (hexa-histidine) (C); 3-(maleimide) phenylboronic acid (MPBA) adduct on the thiol of Cys90; made in house; host or cells: E. coli BL21 (DE3) pLysS, co-expression from pETDuet-1
T1 sequence (A0QR29 other isoform, or with tags, fused parts or gaps D117N/D118N/D120N/D145R/D161R/E166K): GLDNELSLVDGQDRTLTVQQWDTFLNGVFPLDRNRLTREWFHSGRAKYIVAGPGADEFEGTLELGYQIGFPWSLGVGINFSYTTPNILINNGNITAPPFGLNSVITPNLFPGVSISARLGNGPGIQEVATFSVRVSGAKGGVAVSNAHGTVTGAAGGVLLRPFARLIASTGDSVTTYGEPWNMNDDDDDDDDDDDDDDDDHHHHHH
T1 sequence (A0QR29 other isoform, or with tags, fused parts or gaps D117C/D118N/D120N/D145R/D161R/E166K): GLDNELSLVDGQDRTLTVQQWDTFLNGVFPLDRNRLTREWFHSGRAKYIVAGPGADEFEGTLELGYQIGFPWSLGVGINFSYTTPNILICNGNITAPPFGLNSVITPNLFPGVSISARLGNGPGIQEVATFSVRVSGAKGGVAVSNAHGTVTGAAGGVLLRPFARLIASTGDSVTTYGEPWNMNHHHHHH
Protocol: FIG. 88: Definition of event parameters. (a) A representative electrophysiology trace containing nanopore events. Xylitol was treated as the model analyte. I0 is the open pore current and Ib is the residual current caused by alditol blockade. ratio is derived from (I0−Ib)/I0, which is defined as the percentage blockage. τoff represents the dwell time of an event. τon represents the inter-event interval. std is the standard deviation value of the blockage level. (b-c) The histogram plot of ratio (b) and std (c) acquired from a continually recorded trace. The histograms were Gaussian fitted and the peaks of the fitting results respectively represent the mean value of ratio and the mean std. (d-e) The histogram plots of τoff (d) and τon (e) acquired from a continually recorded trace. The histogram plots were respectively fit to a single exponential curve, according to the equation y=a*exp (−x/τ), from which the mean event dwell time (τoff) (d) and the mean inter-event interval (τon) (e) were respectively derived. If not otherwise stated, all results in this manuscript were described by event parameters defined above.
All subsequent nanopore measurements were carried out with a 1.5 M KCl buffer (1.5 M KCl, 10 mM 3-(N-Morpholino) propanesulfonic acid (MOPS), pH 7.0) and a +100 m V continually applied potential (Method 1 in Example 3). 13 types of alditols, which were derived from the reduction of the carbonyl group of C3-C6 monoaldoses were treated as model polyols (FIGS. 77b and 83). The PBA of MspA-PBA can complex with a polyol, forming a cyclic ester at the pore constriction and resulting in the corresponding nanopore event being reported. All alditols were added to the cis side of the pore and the final concentration of alditols was set at 4 mM with the exception of glycerol, which was set at 8 mM instead. […] In addition, single molecule sensing of glycerol and D-Sorbitol by MspA-PBA are as shown in FIGS. 104 and 105, respectively.
To describe the sensing events quantitatively, event parameters such as the open-pore current (I0), the current blockade (Ib), the percentage blockage (ratio), the event dwell time (τoff), the inter-event intervals (τon) and the standard deviation value of the blockage level (std) were defined as described in FIG. 88. The percentage blockage, also referred to for simplicity as ratio, is defined as (I0−Ib)/I0.
Quantitatively, the reciprocal of the mean inter-event interval (1/τon, N=3) is linearly correlated with the alditol concentration, consistent with a bimolecular model. The mean event dwell time τoff (N=3) however is independent of the alditol concentration, and this is consistent with a unimolecular dissociation mechanism (FIGS. 89e-92e, Table 18). […] The binding constant for borate cyclic ester formation for alditols increases as the number of hydroxyl groups in the alditol increases (FIG. 77c and Table 18), consistent with conclusions drawn previously from the corresponding NMR measurements.^52 Nanopore measurements were also performed with different applied voltages. […] This is expected because all alditols tested in this paper are electrically neutral and the formation of a borate ester is independent of the local electric field.
All nanopore measurements were performed as described previously.^1,2 Briefly, the measurement device has two custom chambers separated by a thick Teflon film containing a drilled (˜100 μm) aperture. Before the measurement, the aperture was first treated with 0.5% (v/v) hexadecane in pentane and set for pentane evaporation. Electrolyte buffer (500 μL) was added to the electrically grounded chamber (cis chamber) and the opposing chamber (trans chamber). All nanopore measurements in this paper were performed with a 1.5 M KCl buffer (1.5 M KCl, 10 mM MOPS, pH 7.0). Two custom-made Ag/AgCl electrodes were placed in both chambers in contact with the buffers and the patch-clamp amplifier to form a closed circuit. […]

Octameric M2 MspA = biological target: T2, Octameric M2 MspA (Mycolicibacterium smegmatis, UniProt A0QR29, D117N/D118N/D120N/D145R/D161R/E166K); experiment: Alditol sensing using M2 MspA nanopore (control without PBA); type: binding, Mycobacterium smegmatis; settings: alditol 4 mM in cis, +100 mV
T2 construct: made in house; host or cells: E. coli BL21 (DE3)
T2 sequence (A0QR29 28-211 D117N/D118N/D120N/D145R/D161R/E166K): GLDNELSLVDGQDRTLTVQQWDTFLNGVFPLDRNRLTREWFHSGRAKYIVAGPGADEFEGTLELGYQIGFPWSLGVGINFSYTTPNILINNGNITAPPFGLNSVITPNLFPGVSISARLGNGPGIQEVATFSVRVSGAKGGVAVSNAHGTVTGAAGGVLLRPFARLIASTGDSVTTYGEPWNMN
Protocol: FIG. 87: Alditol sensing using M2 MspA nanopore. Glycerol, erythritol, xylitol and sorbitol were used as the representative alditols with different number of hydroxyl groups. All measurements were carried out as described in Methods 1 in Example 3. Octameric M2 MspA was applied as the nanopore sensor. A transmembrane potential of +100 m V was continually applied. Each alditol was added to cis with a final concentration of 4 mM.
The octameric M2 MspA was used as a control in FIG. 87. It was expressed with E. coli BL21 (DE3) and purified by nickel affinity chromatography as reported previously.^1

[2] = voltage series: +60 mV, glycerol 12 mM, other alditols 8 mM
[3] = voltage series: +80 mV, glycerol 12 mM, other alditols 8 mM
[4] = voltage series: +100 mV, glycerol 12 mM, other alditols 8 mM
[5] = voltage series: +120 mV, glycerol 12 mM, other alditols 8 mM

| Structure (SMILES) | ratio (mean current percentage blockage) ([1]; +100 mV) [%] | std (standard deviation of the blocking level) ([1]; +100 mV) [pA] | 1/τon ([1]; alditol 6 mM in cis, +100 mV) [s⁻¹] | τoff ([1]; alditol 6 mM in cis, +100 mV) [ms] | 1/τon ([1]; alditol 8 mM in cis, +100 mV) [s⁻¹] | τoff ([1]; alditol 8 mM in cis, +100 mV) [ms] | 1/τon ([1]; alditol 10 mM in cis, +100 mV) [s⁻¹] | τoff ([1]; alditol 10 mM in cis, +100 mV) [ms] | 1/τon ([1]; alditol 12 mM in cis, +100 mV) [s⁻¹] | τoff ([1]; alditol 12 mM in cis, +100 mV) [ms] | 1/τon [1, 2] [s⁻¹] | 1/τon [1, 3] [s⁻¹] | 1/τon [1, 4] [s⁻¹] | 1/τon [1, 5] [s⁻¹] | binding events with M2 MspA (Octameric M2 MspA) | 1/τon ([1]; alditol 2 mM in cis, +100 mV) [s⁻¹] | τoff ([1]; alditol 2 mM in cis, +100 mV) [ms] | 1/τon ([1]; alditol 4 mM in cis, +100 mV) [s⁻¹] | τoff ([1]; alditol 4 mM in cis, +100 mV) [ms] |
| --- | --- | --- | --- | --- | --- | --- | --- | --- | --- | --- | --- | --- | --- | --- | --- | --- | --- | --- | --- |
| OCC(O)CO [glycerol] | 17.07 ± 0.15 | 2.57 ± 0.07 | 1.3 ± 0.2 | 10.5 ± 0.8 | 1.7 ± 0.2 | 10.3 ± 0.4 | 2.1 ± 0.3 | 10.5 ± 0.7 | 2.5 ± 0.3 | 10.4 ± 0.5 | 2.2 ± 0.2 | 2.35 ± 0.14 | 2.4 ± 0.3 | 2.4 ± 0.2 | No binding events were observed |  |  |  |  |
| OC[C@@H](O)[C@H](O)[C@@H](O)CO [xylitol] | 25.70±0.10 | 6.28±0.07 | 1.3 ± 0.1 | 461.1 ± 13.4 | 1.71 ± 0.03 | 474.6 ± 21.2 |  |  |  |  | 1.66 ± 0.02 | 1.69 ± 0.02 | 1.70 ± 0.03 | 1.68 ± 0.04 | No binding events were observed | 0.42 ± 0.02 | 515.3 ± 43.5 | 0.84 ± 0.04 | 496.3 ± 18.6 |
